According to ChEMBL document CHEMBL3885881, “DrugMatrix”:

Organism: Rattus norvegicus
Assay: DrugMatrix - Regimen: Daily Repeat
Format: toxicity, organism-based, Sprague-Dawley
Design: regimen Daily Repeat, gender Male, age 6-8 weeks
Conditions: in vivo, po, route oral GAVAGE, vehicle 100 % SALINE; for ABSOLUTE BASOPHIL / ABSOLUTE EOSINOPHIL / ABSOLUTE LYMPHOCYTE / ABSOLUTE MONOCYTE / BASOPHIL / EOSINOPHIL / ERYTHROCYTE COUNT / HEMATOCRIT / HEMOGLOBIN / LEUKOCYTE COUNT / LYMPHOCYTE / MEAN CORPUSCULAR HEMOGLOBIN / MEAN CORPUSCULAR HEMOGLOBIN CONCENTRATION / MEAN CORPUSCULAR VOLUME / MONOCYTE / NEUTROPHIL / PLATELET COUNT: tissue Blood; for ALANINE AMINOTRANSFERASE / ALBUMIN / ALKALINE PHOSPHATASE / ASPARTATE AMINOTRANSFERASE / BLOOD UREA NITROGEN / CARBON DIOXIDE / CHLORIDE / CHOLESTEROL / CREATINE PHOSPHOKINASE / CREATININE / GLUCOSE / LACTATE DEHYDROGENASE / LIPASE / PHOSPHORUS / POTASSIUM / SODIUM / TOTAL BILIRUBIN / TOTAL PROTEIN / URIC ACID: tissue Plasma
[1] = 0 mg/kg, 72 h, dose level Control, time 3 day
[2] = 0 mg/kg, 120 h, dose level Control, time 5 day
[3] = 0 mg/kg, […], dose level Control, time 14 day
[4] = […], 72 h, dose 7.5 mg/Kg, dose level High, time 3 day
[5] = […], 120 h, dose 7.5 mg/Kg, dose level High, time 5 day

Nc1ncnc2c1ncn2[C@@H]1O[C@H](CO)[C@@H](O)[C@H]1F [2'-BETA-FLUORO-2',3'-DEOXYADENOSINE]
ABSOLUTE BASOPHIL [1]: 140 cells/µL | ABSOLUTE EOSINOPHIL [1]: 43.3 cells/µL | ABSOLUTE LYMPHOCYTE [1]: 7570 cells/µL | ABSOLUTE MONOCYTE [1]: 160 cells/µL | BASOPHIL [1]: 1.47% | EOSINOPHIL [1]: 0.47% | ERYTHROCYTE COUNT [1]: 6.68 x10E6/uL | HEMATOCRIT [1]: 44.33% | HEMOGLOBIN [1]: 14.43 G/DL | LEUKOCYTE COUNT [1]: 9.33 x10E3/uL | LYMPHOCYTE [1]: 81.23% | MEAN CORPUSCULAR HEMOGLOBIN [1]: 21.67 pg | MEAN CORPUSCULAR HEMOGLOBIN CONCENTRATION [1]: 32.6 G/DL | MEAN CORPUSCULAR VOLUME [1]: 66.43 fL | MONOCYTE [1]: 1.73% | NEUTROPHIL [1]: 14.7% | PLATELET COUNT [1]: 1341.67 x10E3/uL | ALANINE AMINOTRANSFERASE [1]: 31 u/L | ALBUMIN [1]: 4.03 G/DL | ALKALINE PHOSPHATASE [1]: 447 u/L | ASPARTATE AMINOTRANSFERASE [1]: 61.33 u/L | BLOOD UREA NITROGEN [1]: 15.67 mg/dL | CARBON DIOXIDE [1]: 43 mmol/L | CHLORIDE [1]: 103.33 MEQ/L | CHOLESTEROL [1]: 83.67 mg/dL | CREATINE PHOSPHOKINASE [1]: 174.33 u/L | CREATININE [1]: 0.4 mg/dL | GLUCOSE [1]: 173 mg/dL | LACTATE DEHYDROGENASE [1]: 87.67 u/L | LIPASE [1]: 17.33 u/L | PHOSPHORUS [1]: 10.27 mg/dL | POTASSIUM [1]: 6.47 MEQ/L | SODIUM [1]: 143.67 MEQ/L | TOTAL BILIRUBIN [1]: 0.37 mg/dL | TOTAL PROTEIN [1]: 6.63 G/DL | URIC ACID [1]: 1.03 mg/dL | ABSOLUTE BASOPHIL [2]: 53.3 cells/µL | ABSOLUTE EOSINOPHIL [2]: 210 cells/µL | ABSOLUTE LYMPHOCYTE [2]: 8220 cells/µL | ABSOLUTE MONOCYTE [2]: 200 cells/µL | BASOPHIL [2]: 0.53% | EOSINOPHIL [2]: 2.1% | ERYTHROCYTE COUNT [2]: 7 x10E6/uL | HEMATOCRIT [2]: 44% | HEMOGLOBIN [2]: 14.53 G/DL | LEUKOCYTE COUNT [2]: 10.44 x10E3/uL | LYMPHOCYTE [2]: 78.07% | MEAN CORPUSCULAR HEMOGLOBIN [2]: 20.77 pg | MEAN CORPUSCULAR HEMOGLOBIN CONCENTRATION [2]: 33 G/DL | MEAN CORPUSCULAR VOLUME [2]: 62.87 fL | MONOCYTE [2]: 1.87% | NEUTROPHIL [2]: 16.8% | PLATELET COUNT [2]: 1104.33 x10E3/uL | ALANINE AMINOTRANSFERASE [2]: 31.67 u/L | ALBUMIN [2]: 3.93 G/DL | ALKALINE PHOSPHATASE [2]: 394.67 u/L | ASPARTATE AMINOTRANSFERASE [2]: 65.67 u/L | BLOOD UREA NITROGEN [2]: 15.67 mg/dL | CARBON DIOXIDE [2]: 40.67 mmol/L | CHLORIDE [2]: 104.33 MEQ/L | CHOLESTEROL [2]: 66.33 mg/dL | CREATINE PHOSPHOKINASE [2]: 346.67 u/L | CREATININE [2]: 0.33 mg/dL | GLUCOSE [2]: 176.67 mg/dL | LACTATE DEHYDROGENASE [2]: 109 u/L | LIPASE [2]: 14.33 u/L | PHOSPHORUS [2]: 11.17 mg/dL | POTASSIUM [2]: 6.53 MEQ/L | SODIUM [2]: 146 MEQ/L | TOTAL BILIRUBIN [2]: 0.37 mg/dL | URIC ACID [2]: 0.97 mg/dL | ABSOLUTE BASOPHIL [3]: 93.3 cells/µL | ABSOLUTE EOSINOPHIL [3]: 80 cells/µL | ABSOLUTE LYMPHOCYTE [3]: 6890 cells/µL | ABSOLUTE MONOCYTE [3]: 170 cells/µL | BASOPHIL [3]: 1% | EOSINOPHIL [3]: 0.83% | ERYTHROCYTE COUNT [3]: 7.03 x10E6/uL | HEMATOCRIT [3]: 43.4% | HEMOGLOBIN [3]: 14.83 G/DL | LEUKOCYTE COUNT [3]: 8.94 x10E3/uL | LYMPHOCYTE [3]: 77.93% | MEAN CORPUSCULAR HEMOGLOBIN [3]: 21.1 pg | MEAN CORPUSCULAR HEMOGLOBIN CONCENTRATION [3]: 34.17 G/DL | MEAN CORPUSCULAR VOLUME [3]: 61.77 fL | MONOCYTE [3]: 1.33% | NEUTROPHIL [3]: 18% | PLATELET COUNT [3]: 1097.33 x10E3/uL | ALANINE AMINOTRANSFERASE [3]: 32 u/L | ALBUMIN [3]: 3.83 G/DL | ALKALINE PHOSPHATASE [3]: 334.67 u/L | ASPARTATE AMINOTRANSFERASE [3]: 69.33 u/L | BLOOD UREA NITROGEN [3]: 16 mg/dL | CARBON DIOXIDE [3]: 40 mmol/L | CHLORIDE [3]: 105.67 MEQ/L | CHOLESTEROL [3]: 70.33 mg/dL | CREATINE PHOSPHOKINASE [3]: 144.67 u/L | CREATININE [3]: 0.3 mg/dL | GLUCOSE [3]: 177.67 mg/dL | LACTATE DEHYDROGENASE [3]: 97.67 u/L | LIPASE [3]: 16.33 u/L | PHOSPHORUS [3]: 10.83 mg/dL | POTASSIUM [3]: 5.77 MEQ/L | SODIUM [3]: 143.33 MEQ/L | TOTAL BILIRUBIN [3]: 0.33 mg/dL | TOTAL PROTEIN [3]: 6.37 G/DL | URIC ACID [3]: 0.17 mg/dL | ABSOLUTE BASOPHIL [4]: 280 cells/µL | ABSOLUTE EOSINOPHIL [4]: 220 cells/µL | ABSOLUTE LYMPHOCYTE [4]: 9970 cells/µL | ABSOLUTE MONOCYTE [4]: 370 cells/µL | BASOPHIL [4]: 2.3% | EOSINOPHIL [4]: 2.07% | ERYTHROCYTE COUNT [4]: 6.92 x10E6/uL | HEMATOCRIT [4]: 45.73% | HEMOGLOBIN [4]: 14.7 G/DL | LEUKOCYTE COUNT [4]: 12.17 x10E3/uL | LYMPHOCYTE [4]: 81.03% | MEAN CORPUSCULAR HEMOGLOBIN [4]: 21.23 pg | MEAN CORPUSCULAR HEMOGLOBIN CONCENTRATION [4]: 32.1 G/DL | MEAN CORPUSCULAR VOLUME [4]: 66.07 fL | MONOCYTE [4]: 3.03% | NEUTROPHIL [4]: 11.03% | PLATELET COUNT [4]: 1214.67 x10E3/uL | ALANINE AMINOTRANSFERASE [4]: 43.33 u/L | ALBUMIN [4]: 3.93 G/DL | ALKALINE PHOSPHATASE [4]: 434.67 u/L | ASPARTATE AMINOTRANSFERASE [4]: 98.33 u/L | BLOOD UREA NITROGEN [4]: 16 mg/dL | CARBON DIOXIDE [4]: 43.33 mmol/L | CHLORIDE [4]: 103 MEQ/L | CHOLESTEROL [4]: 76.33 mg/dL | CREATINE PHOSPHOKINASE [4]: 214.67 u/L | CREATININE [4]: 0.43 mg/dL | GLUCOSE [4]: 167.67 mg/dL | LACTATE DEHYDROGENASE [4]: 99.33 u/L | LIPASE [4]: 12 u/L | PHOSPHORUS [4]: 11 mg/dL | POTASSIUM [4]: 7.1 MEQ/L | SODIUM [4]: 144 MEQ/L | TOTAL BILIRUBIN [4]: 0.33 mg/dL | TOTAL PROTEIN [4]: 6.37 G/DL | URIC ACID [4]: 0.97 mg/dL | ABSOLUTE BASOPHIL [5]: 86.7 cells/µL | ABSOLUTE EOSINOPHIL [5]: 120 cells/µL | ABSOLUTE LYMPHOCYTE [5]: 11100 cells/µL | ABSOLUTE MONOCYTE [5]: 270 cells/µL | BASOPHIL [5]: 0.63% | EOSINOPHIL [5]: 0.9% | ERYTHROCYTE COUNT [5]: 7.18 x10E6/uL | HEMATOCRIT [5]: 44.8% | HEMOGLOBIN [5]: 14.83 G/DL | LEUKOCYTE COUNT [5]: 13.05 x10E3/uL | LYMPHOCYTE [5]: 85.27% | MEAN CORPUSCULAR HEMOGLOBIN [5]: 20.7 pg | MEAN CORPUSCULAR HEMOGLOBIN CONCENTRATION [5]: 33.13 G/DL | MEAN CORPUSCULAR VOLUME [5]: 62.43 fL | MONOCYTE [5]: 2.07% | NEUTROPHIL [5]: 10.57% | PLATELET COUNT [5]: 1282.67 x10E3/uL | ALANINE AMINOTRANSFERASE [5]: 66 u/L | ALBUMIN [5]: 3.73 G/DL | ALKALINE PHOSPHATASE [5]: 389.33 u/L | ASPARTATE AMINOTRANSFERASE [5]: 161.67 u/L | BLOOD UREA NITROGEN [5]: 16 mg/dL | CARBON DIOXIDE [5]: 40 mmol/L | CHLORIDE [5]: 106.67 MEQ/L | CHOLESTEROL [5]: 69.67 mg/dL | CREATINE PHOSPHOKINASE [5]: 169 u/L | CREATININE [5]: 0.4 mg/dL | GLUCOSE [5]: 172.33 mg/dL | LACTATE DEHYDROGENASE [5]: 94.33 u/L | LIPASE [5]: 11.33 u/L | PHOSPHORUS [5]: 10.2 mg/dL | POTASSIUM [5]: 6.1 MEQ/L | SODIUM [5]: 147.33 MEQ/L | TOTAL BILIRUBIN [5]: 0.3 mg/dL | TOTAL PROTEIN [5]: 6.03 G/DL | URIC ACID [5]: 0.97 mg/dL
